Measured values published in the supplement of paper PMC11061612.

Assays:
Assay in all cases: combination Emax (second highest fraction inhibited in the dose matrix, 72 h); higher = more inhibition; extreme values may be limits of the assay
[1] = system: J82 (Bladder Carcinoma)
Outline: (§1)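 After 24 hours at 37°C and 5% CO2 in 1536-well plates, cells in DMEM/F12 or RPMI plus 10% FBS received two-drug dose matrices for 72 hours. Viability came from CellTiter-Glo 2.0 luminescence and was scaled as inhibition, anchored at 0 by vehicle wells and at 1 by blank wells. Combination Emax is taken as the second-highest inhibition in the matrix, and Bliss excess as the observed combination effect less EA + EB − EA·EB, with EA and EB the single-agent effects.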

[2] = system: TE-5 (Esophageal Squamous Cell Carcinoma)
Outline: as §1

[3] = system: OCI-AML2 (Acute Myeloid Leukemia)
Outline: as §1

[4] = system: JiyoyeP-2003 (Burkitt's Lymphoma)
Outline: as §1

[5] = system: MFH-ino (Other Solid Carcinomas)
Outline: as §1

[6] = system: KATOIII (Gastric Carcinoma)
Outline: as §1

[7] = system: CTV-1 (T-Lymphoblastic Leukemia)
Outline: as §1

[8] = system: NCI-H1694 (Small Cell Lung Carcinoma)
Outline: as §1

[9] = system: SNU-C5 (Colorectal Carcinoma)
Outline: as §1

[10] = system: NCI-H1299 (Non-Small Cell Lung Carcinoma)
Outline: as §1

[11] = system: SW1990 (Pancreatic Carcinoma)
Outline: as §1

[12] = system: EM-2 (Chronic Myelogenous Leukemia)
Outline: as §1

[13] = system: HPAC (Pancreatic Carcinoma)
Outline: as §1

[14] = system: CAL-78 (Chondrosarcoma)
Outline: as §1

[15] = system: SW1783 (Low Grade Glioma)
Outline: as §1

[16] = system: NCI-H2595 (Mesothelioma)
Outline: as §1

[17] = system: COR-L23 (Non-Small Cell Lung Carcinoma)
Outline: as §1

[18] = system: MDA-MB-157 (Breast Carcinoma)
Outline: as §1

[19] = system: U-266 (Plasma Cell Myeloma)
Outline: as §1

[20] = system: SK-N-FI (Neuroblastoma)
Outline: as §1

Row | SMILES | combination Emax [1] | combination Emax [2] | combination Emax [3] | combination Emax [4] | combination Emax [5] | combination Emax [6] | combination Emax [7] | combination Emax [8] | combination Emax [9] | combination Emax [10] | combination Emax [11] | combination Emax [12] | combination Emax [13] | combination Emax [14] | combination Emax [15] | combination Emax [16] | combination Emax [17] | combination Emax [18] | combination Emax [19] | combination Emax [20]
1 | Cc1cc2ncnn2cc1Nc1ncc2c(n1)n(C1CCOCC1)c(=O)n2C [AZD7648] + CN(C)CCCOc1ccc(-c2ccc3ncc4c(c3c2)n(C2CCOCC2)c(=O)n4C)cn1 [AZD0156] (first compound max 10 µM, 7x7, partner max 1 µM) | 0.104 | 0.41 | 0.367 | 0.394 | 0.341 | 0.291 | 0.262 | 0.165 | 0.337 | 0.352 | 0.212 | 0.349 | 0.169 | 0.173 | 0.277 | 0.208 | 0.0702 | 0.209 | 0.226 | 0.353
2 | CC(=O)c1c(C)c2cnc(Nc3ccc(N4CCNCC4)cn3)nc2n(C2CCCC2)c1=O [Palbociclib] + Cc1c2c(nn1C)CSCc1cc(n(C)n1)CSc1cc(c3ccccc3c1)OCCCc1c(C(=O)O)n(C)c3c-2c(Cl)ccc13 [AZD5991] (first compound max 10 µM, 7x7, partner max 1 µM) | 0.25 | 0.157 | 0.955 | 0.588 | 0.382 | 0.406 | 0.843 | 0.667 | 0.35 | 0.478 | 0.204 | 0.484 | 0.329 | 0.693 | 0.159 | 0.225 | 0.203 | 0.669 | 0.872 | 0.557
3 | COc1nnc2ccc(N3CCC(c4ccc(OCCN5CCN(C)C(=O)[C@H]5C)cc4)CC3)nn12 [AZD5153] + Cc1c2c(nn1C)CSCc1cc(n(C)n1)CSc1cc(c3ccccc3c1)OCCCc1c(C(=O)O)n(C)c3c-2c(Cl)ccc13 [AZD5991] (first compound max 1 µM, 7x7, partner max 1 µM) | 0.791 | 0.407 | 1 | 0.918 | 0.489 | 0.324 | 0.939 | 0.992 | 0.56 | 0.798 | 0.109 | 0.988 | 0.628 | 0.749 | 0.336 | 0.602 | 0.312 | 0.993 | 0.899 | 0.722
4 | NC1(C(=O)N[C@@H](CCO)c2ccc(Cl)cc2)CCN(c2ncnc3[nH]ccc23)CC1 [Capivasertib] + CC(=O)c1c(C)c2cnc(Nc3ccc(N4CCNCC4)cn3)nc2n(C2CCCC2)c1=O [Palbociclib] (first compound max 10 µM, 7x7, partner max 10 µM) | 0.452 | 0.359 | 0.804 | 0.683 | 0.483 | 0.311 | 0.897 | 0.141 | 0.567 | 0.465 | 0.214 | 0.384 | 0.589 | 0.542 | 0.407 | 0.214 | 0.442 | 0.24 | 0.254 | 0.413
5 | C=CCn1c(=O)c2cnc(Nc3ccc(N4CCN(C)CC4)cc3)nc2n1-c1cccc(C(C)(C)O)n1 [AZD1775] + C[C@@H]1COCCN1C2=NC(=NC(=C2)C3(CC3)[S@](=N)(=O)C)C4=C5C=CNC5=NC=C4 [AZD6738] (first compound max 1 µM, partner max 10 µM) | 0.414 | 0.577 | 1 | 0.982 | 0.536 | 0.507 | 0.993 | 0.883 | 0.794 | 0.889 | 0.623 | 0.977 | 0.705 | 0.839 | 0.41 | 0.266 | 0.595 | 0.947 | 0.707 | 0.857
6 | COc1nnc2ccc(N3CCC(c4ccc(OCCN5CCN(C)C(=O)[C@H]5C)cc4)CC3)nn12 [AZD5153] + C=CCn1c(=O)c2cnc(Nc3ccc(N4CCN(C)CC4)cc3)nc2n1-c1cccc(C(C)(C)O)n1 [AZD1775] (first compound max 1 µM, partner max 1 µM) | 0.486 | 0.383 | 1 | 0.944 | 0.473 | 0.473 | 0.996 | 0.714 | 0.682 | 0.777 | 0.24 | 0.986 | 0.735 | 0.551 | 0.41 | 0.371 | 0.68 | 0.636 | 0.637 | 0.641
7 | Cc1cc2ncnn2cc1Nc1ncc2c(n1)n(C1CCOCC1)c(=O)n2C [AZD7648] + C[C@@H]1COCCN1C2=NC(=NC(=C2)C3(CC3)[S@](=N)(=O)C)C4=C5C=CNC5=NC=C4 [AZD6738] (first compound max 10 µM, 7x7, partner max 10 µM) | 0.31 | 0.565 | 0.986 | 0.929 | 0.499 | 0.407 | 0.864 | 0.659 | 0.751 | 0.644 | 0.471 | 0.957 | 0.672 | 0.469 | 0.437 | 0.208 | 0.577 | 0.881 | 0.508 | 0.71
8 | CN(CCO)CC[C@H](CSc1ccccc1)Nc1ccc(S(=O)(=O)NC(=O)c2ccc(N3CCC([C@@H](O)c4ccccc4-c4ccc(Cl)cc4)CC3)cc2)cc1S(=O)(=O)C(F)(F)F [AZD4320] + C[C@@H](Nc1cc(F)cc(F)c1)c1cc(C(=O)N(C)C)cc2c(=O)cc(N3CCOCC3)oc12 [AZD8186] (first compound max 1 µM, 7x7, partner max 3 µM) | 0.282 | 0.636 | 1 | 0.789 | 0.397 | 0.135 | 0.719 | 0.978 | 0.399 | 0.297 | 0.388 | 0.959 | 0.562 | 0.7 | 0.663 | 0.271 | 0.332 | 0.349 | 0.481 | 0.395
9 | CN(CCO)CC[C@H](CSc1ccccc1)Nc1ccc(S(=O)(=O)NC(=O)c2ccc(N3CCC([C@@H](O)c4ccccc4-c4ccc(Cl)cc4)CC3)cc2)cc1S(=O)(=O)C(F)(F)F [AZD4320] + CCN(CCO)CCCOc1ccc2c(Nc3cc(CC(=O)Nc4cccc(F)c4)[nH]n3)ncnc2c1 [AZD2811] (first compound max 1 µM, 7x7, partner max 1 µM) | 0.126 | 0.478 | 1 | 0.827 | 0.102 | 0.0347 | 0.27 | 0.94 | 0.196 | 0.228 | 0.183 | 0.985 | 0.844 | 0.703 | 0.412 | 0.125 | 0.15 | 0.257 | 0.718 | 0.206
10 | CN(C)CCCOc1ccc(-c2ccc3ncc4c(c3c2)n(C2CCOCC2)c(=O)n4C)cn1 [AZD0156] + C[C@@H]1COCCN1C2=NC(=NC(=C2)C3(CC3)[S@](=N)(=O)C)C4=C5C=CNC5=NC=C4 [AZD6738] (first compound max 1 µM, 7x7, partner max 10 µM) | 0.396 | 0.481 | 0.975 | 0.955 | 0.403 | 0.519 | 0.829 | 0.711 | 0.807 | 0.746 | 0.552 | 0.949 | 0.761 | 0.41 | 0.257 | 0.12 | 0.687 | 0.914 | 0.523 | 0.793
